From PubChem BioAssay (NCI)
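Tested at 5 concentrations; 48 h exposure; 96-well plates; endpoints linearly interpolated, else capped at highest concentration. Abbreviation: GI50, concentration required for 50% inhibition of growth. At the TGI there is no net growth.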

What was measured:
Assay in all cases: inhibition of tumour cell growth, NCI panel, 48 h
786-0 renal = system: 786-0 renal
A498 renal = system: A498 renal
A549 NSCLC = system: A549 NSCLC
ACHN renal = system: ACHN renal
BT-549 breast = system: BT-549 breast
CAKI-1 renal = system: CAKI-1 renal
CCRF-CEM leukemia = system: CCRF-CEM leukemia
COLO 205 colon = system: COLO 205 colon
DU-145 prostate = system: DU-145 prostate
EKVX NSCLC = system: EKVX NSCLC
HCC-2998 colon = system: HCC-2998 colon
HCT-116 colon = system: HCT-116 colon
HCT-15 colon = system: HCT-15 colon
HL-60(TB) leukemia = system: HL-60(TB) leukemia
HOP-62 NSCLC = system: HOP-62 NSCLC
HOP-92 NSCLC = system: HOP-92 NSCLC
HS 578T breast = system: HS 578T breast
HT29 colon = system: HT29 colon
IGROV1 ovarian = system: IGROV1 ovarian
K-562 leukemia = system: K-562 leukemia
KM12 colon = system: KM12 colon
LOX IMVI melanoma = system: LOX IMVI melanoma
MALME-3M melanoma = system: MALME-3M melanoma
MCF7 breast = system: MCF7 breast
MDA-MB-231 breast = system: MDA-MB-231 breast
MDA-MB-435 = system: MDA-MB-435
MOLT-4 leukemia = system: MOLT-4 leukemia
NCI-H226 lung = system: NCI-H226 lung
NCI-H23 lung = system: NCI-H23 lung
NCI-H460 lung = system: NCI-H460 lung
NCI-H522 lung = system: NCI-H522 lung
NCI/ADR-RES ovarian = system: NCI/ADR-RES ovarian
OVCAR-3 ovarian = system: OVCAR-3 ovarian
OVCAR-4 ovarian = system: OVCAR-4 ovarian
OVCAR-5 ovarian = system: OVCAR-5 ovarian
OVCAR-8 ovarian = system: OVCAR-8 ovarian
PC-3 prostate = system: PC-3 prostate
RXF 393 renal = system: RXF 393 renal
SF-268 CNS = system: SF-268 CNS
SF-295 CNS = system: SF-295 CNS
SF-539 CNS = system: SF-539 CNS
SK-MEL-2 melanoma = system: SK-MEL-2 melanoma
SK-MEL-28 melanoma = system: SK-MEL-28 melanoma
SK-MEL-5 melanoma = system: SK-MEL-5 melanoma
SK-OV-3 ovarian = system: SK-OV-3 ovarian
SN12C renal = system: SN12C renal
SNB-19 CNS = system: SNB-19 CNS
SNB-75 CNS = system: SNB-75 CNS
SR leukemia = system: SR leukemia
SW-620 colon = system: SW-620 colon
T-47D breast = system: T-47D breast
TK-10 renal = system: TK-10 renal
U251 CNS = system: U251 CNS
UACC-257 melanoma = system: UACC-257 melanoma
UACC-62 melanoma = system: UACC-62 melanoma
UO-31 renal = system: UO-31 renal
M14 melanoma = system: M14 melanoma
RPMI-8226 leukemia = system: RPMI-8226 leukemia

## CC1CCN(C(=O)OCc2nc3nc(Cl)nc(N4CCOCC4)c3[nH]2)CC1
786-0 renal
  GI50: 1.29 µM
  TGI: 2.69 µM
A498 renal
  GI50: 1.65 µM
  TGI: 4.05 µM
A549 NSCLC
  GI50: 1.94 µM
  TGI: 4.81 µM
ACHN renal
  GI50: 0.583 µM
  TGI: 1.88 µM
BT-549 breast
  GI50: 1.25 µM
  TGI: 3.07 µM
CAKI-1 renal
  GI50: 0.72 µM
  TGI: 2.27 µM
CCRF-CEM leukemia
  GI50: 0.29 µM
  TGI: 0.964 µM
COLO 205 colon
  GI50: 1.75 µM
  TGI: 4.99 µM
DU-145 prostate
  GI50: 1.14 µM
  TGI: 2.35 µM
EKVX NSCLC
  GI50: 1.48 µM
  TGI: 3.3 µM
HCC-2998 colon
  GI50: 1.69 µM
  TGI: 3.29 µM
HCT-116 colon
  GI50: 0.209 µM
  TGI: 1.16 µM
HCT-15 colon
  GI50: 0.634 µM
  TGI: 2.22 µM
HL-60(TB) leukemia
  GI50: 0.423 µM
  TGI: 3.78 µM
HOP-62 NSCLC
  GI50: 1.76 µM
  TGI: 5 µM
HOP-92 NSCLC
  GI50: 0.0497 µM
  TGI: 1.06 µM
HS 578T breast
  GI50: 1.76 µM
  TGI: 4.85 µM
HT29 colon
  GI50: 0.831 µM
  TGI: 6.38 µM
IGROV1 ovarian
  GI50: 0.529 µM
  TGI: 1.83 µM
K-562 leukemia
  GI50: 0.434 µM
  TGI: 13.6 µM
KM12 colon
  GI50: 1.58 µM
  TGI: 3.33 µM
LOX IMVI melanoma
  GI50: 0.175 µM
  TGI: 0.473 µM
MALME-3M melanoma
  GI50: 1.5 µM
  TGI: 2.86 µM
MCF7 breast
  GI50: 0.65 µM
  TGI: 2.38 µM
MDA-MB-231 breast
  GI50: 1.25 µM
  TGI: 2.7 µM
MDA-MB-435
  GI50: 0.835 µM
  TGI: 2.24 µM
MOLT-4 leukemia
  GI50: 0.704 µM
  TGI: 4.04 µM
NCI-H226 lung
  GI50: 1.62 µM
  TGI: 4.23 µM
NCI-H23 lung
  GI50: 1.58 µM
  TGI: 3.65 µM
NCI-H460 lung
  GI50: 1.38 µM
  TGI: 2.99 µM
NCI-H522 lung
  GI50: 1.08 µM
  TGI: 3.13 µM
NCI/ADR-RES ovarian
  GI50: 2.21 µM
  TGI: 10.4 µM
OVCAR-3 ovarian
  GI50: 0.438 µM
  TGI: 1.71 µM
OVCAR-4 ovarian
  GI50: 1.35 µM
  TGI: 2.72 µM
OVCAR-5 ovarian
  GI50: 1.31 µM
  TGI: 2.73 µM
OVCAR-8 ovarian
  GI50: 1.9 µM
  TGI: 9.02 µM
PC-3 prostate
  GI50: 0.832 µM
  TGI: 2.42 µM
RXF 393 renal
  GI50: 0.554 µM
  TGI: 2 µM
SF-268 CNS
  GI50: 1.42 µM
  TGI: 2.84 µM
SF-295 CNS
  GI50: 3.76 µM
  TGI: 15.3 µM
SF-539 CNS
  GI50: 1.11 µM
  TGI: 2.32 µM
SK-MEL-2 melanoma
  GI50: 1.86 µM
  TGI: 3.77 µM
SK-MEL-28 melanoma
  GI50: 1.56 µM
  TGI: 2.94 µM
SK-MEL-5 melanoma
  GI50: 1.74 µM
  TGI: 3.14 µM
SK-OV-3 ovarian
  GI50: 7.35 µM
  TGI: 21 µM
SN12C renal
  GI50: 0.865 µM
  TGI: 2.16 µM
SNB-19 CNS
  GI50: 1.55 µM
  TGI: 2.9 µM
SNB-75 CNS
  GI50: 1.06 µM
  TGI: 2.29 µM
SR leukemia
  GI50: 0.331 µM
  TGI: 3.31 µM
SW-620 colon
  GI50: 0.551 µM
  TGI: 2.07 µM
T-47D breast
  GI50: 1.76 µM
  TGI: 4.89 µM
TK-10 renal
  GI50: 1.82 µM
  TGI: 3.44 µM
U251 CNS
  GI50: 1.66 µM
  TGI: 3.43 µM
UACC-257 melanoma
  GI50: 1.73 µM
  TGI: 3.76 µM
UACC-62 melanoma
  GI50: 1.29 µM
  TGI: 2.55 µM
UO-31 renal
  GI50: 0.692 µM
  TGI: 2.05 µM

## COC(=O)c1ccc2c(c1)/C(=C\c1cc(Br)c(O)c(Br)c1)C(=O)N2
786-0 renal
  GI50: 10.1 µM
  TGI: > 25 µM
A498 renal
  GI50: 3.48 µM
  TGI: 11 µM
A549 NSCLC
  GI50: 8.19 µM
  TGI: > 25 µM
ACHN renal
  GI50: 6.27 µM
  TGI: > 25 µM
BT-549 breast
  GI50: 10.6 µM
  TGI: > 25 µM
CAKI-1 renal
  GI50: 4.68 µM
  TGI: > 25 µM
CCRF-CEM leukemia
  GI50: 5.98 µM
  TGI: > 25 µM
COLO 205 colon
  GI50: 6.8 µM
  TGI: > 25 µM
DU-145 prostate
  GI50: 7.15 µM
  TGI: > 25 µM
EKVX NSCLC
  GI50: 15.8 µM
  TGI: > 25 µM
HCC-2998 colon
  GI50: 8.23 µM
  TGI: > 25 µM
HCT-116 colon
  GI50: 8.29 µM
  TGI: > 25 µM
HCT-15 colon
  GI50: 5.47 µM
  TGI: > 25 µM
HL-60(TB) leukemia
  GI50: 4.97 µM
  TGI: 14.6 µM
HOP-62 NSCLC
  GI50: 10.5 µM
  TGI: > 25 µM
HOP-92 NSCLC
  GI50: 2.45 µM
  TGI: 17.4 µM
HS 578T breast
  GI50: 4.75 µM
  TGI: > 22.6 µM
HT29 colon
  GI50: 4.3 µM
  TGI: > 25 µM
IGROV1 ovarian
  GI50: 7.29 µM
  TGI: > 25 µM
K-562 leukemia
  GI50: 8.14 µM
  TGI: > 25 µM
KM12 colon
  GI50: 6.79 µM
  TGI: > 25 µM
LOX IMVI melanoma
  GI50: 4.13 µM
  TGI: > 25 µM
M14 melanoma
  GI50: 1.88 µM
  TGI: 9.23 µM
MALME-3M melanoma
  GI50: 2.08 µM
  TGI: 13.8 µM
MCF7 breast
  GI50: 8.01 µM
  TGI: > 25 µM
MDA-MB-231 breast
  GI50: 6.83 µM
  TGI: > 25 µM
MDA-MB-435
  GI50: 3.1 µM
  TGI: > 19.4 µM
MOLT-4 leukemia
  GI50: 7.59 µM
  TGI: > 24.1 µM
NCI-H226 lung
  GI50: 14.6 µM
  TGI: > 25 µM
NCI-H23 lung
  GI50: 7.22 µM
  TGI: > 25 µM
NCI-H460 lung
  GI50: 7.57 µM
  TGI: > 25 µM
NCI-H522 lung
  GI50: 4.73 µM
  TGI: 19.3 µM
NCI/ADR-RES ovarian
  GI50: 15.7 µM
  TGI: > 25 µM
OVCAR-3 ovarian
  GI50: 8.14 µM
  TGI: > 25 µM
OVCAR-4 ovarian
  GI50: 7.96 µM
  TGI: > 25 µM
OVCAR-5 ovarian
  GI50: 13.5 µM
  TGI: > 25 µM
OVCAR-8 ovarian
  GI50: 13 µM
  TGI: > 25 µM
PC-3 prostate
  GI50: 7.68 µM
  TGI: > 25 µM
RPMI-8226 leukemia
  GI50: 5.21 µM
  TGI: > 25 µM
RXF 393 renal
  GI50: 6.06 µM
  TGI: > 21.2 µM
SF-268 CNS
  GI50: 10.1 µM
  TGI: > 25 µM
SF-295 CNS
  GI50: 5.1 µM
  TGI: > 24 µM
SF-539 CNS
  GI50: 5.85 µM
  TGI: > 25 µM
SK-MEL-28 melanoma
  GI50: 3.96 µM
  TGI: > 25 µM
SK-MEL-5 melanoma
  GI50: 4.48 µM
  TGI: > 16.5 µM
SK-OV-3 ovarian
  GI50: 6.57 µM
  TGI: > 25 µM
SN12C renal
  GI50: 10 µM
  TGI: > 25 µM
SNB-19 CNS
  GI50: 12.4 µM
  TGI: > 25 µM
SNB-75 CNS
  GI50: 5.4 µM
  TGI: > 25 µM
SR leukemia
  GI50: 8.11 µM
  TGI: > 25 µM
SW-620 colon
  GI50: 8.4 µM
  TGI: > 25 µM
T-47D breast
  GI50: 8.72 µM
  TGI: > 25 µM
TK-10 renal
  GI50: 6.79 µM
  TGI: > 23.3 µM
U251 CNS
  GI50: 6.59 µM
  TGI: > 25 µM
UACC-257 melanoma
  GI50: 4.24 µM
  TGI: 15.5 µM
UACC-62 melanoma
  GI50: 2.77 µM
  TGI: 8.8 µM
UO-31 renal
  GI50: 6.84 µM
  TGI: > 25 µM
